Data taken from article PMC3131588, “Effects of Onion (Allium cepa L.) Extract Administration on Intestinal α-Glucosidases Activities and Spikes in Postprandial Blood Glucose Levels in SD Rats Model” (International Journal of Molecular Sciences, 2011).

Legend:
[1] = target: T1, rat intestinal α-glucosidase; assay: p-nitrophenyl-α-D-glucopyranoside hydrolysis, absorbance at […] nm; assay type: biochemical; settings: 5 mM p-nitrophenyl-α-D-glucopyranoside stock (50 μL), 0.1 M phosphate pH 6.9, 25 °C; crude rat intestinal enzyme; quercetin bought as dihydrate
T1 construct: gene Mgam; native enzymes in crude supernatant of rat intestinal acetone powder (Sigma-Aldrich), EC 3.2.1.20; not resolved to one gene product

[2] = target: T2, rat intestinal maltase; assay: maltose hydrolysis, liberated glucose by glucose oxidase method; assay type: biochemical; settings: maltose 0.4 mg/mL, 0.1 M phosphate pH 7.0, 37 °C, 30 min; crude rat intestinal enzyme; quercetin bought as dihydrate
T2 construct: gene Mgam; native enzymes in crude supernatant of rat intestinal acetone powder (Sigma-Aldrich); maltase activity not resolved to one gene product
From the text: maltose hydrolysis, liberated glucose by glucose oxidase method on rat intestinal maltase

O=c1c(O)c(-c2ccc(O)c(O)c2)oc2cc(O)cc(O)c12 [quercetin, 3,3′,4′,5,7-Pentahydroxyflavone dihydrate]
IC50 [1]: 150 µg/mL | IC50 [2]: 70 µg/mL
